Measurements taken from patent publication EP2873675A1, “Peptide-based peroxidase inhibitors and methods of using same” (The Medical College of Wisconsin, Inc., priority 2013, dated 2015).
Entries after “also recorded” stand apart in the source; their conditions may differ. Residues, ends and D or L forms follow the SMILES beside them.

Legend:
MPO [1] = test: MPO-catalyzed HOCl production (taurine/TMB assay); assay type: biochemical
Procedure: MPO-mediated HOCl Production. MPO (20 nM) was incubated with H2O2 (50 µM), NaCl (150 mM), taurine (5 mM) and increasing concentrations of KYC in phosphate buffer (100 mM, pH 7.4) which also contained diethylene triamine pentaacetic acid (DTPA, 100 µM) to prevent non-specific, divalent metal cation oxidation for 30 min. Reactions were halted by addition of catalase. Chlorotaurine was quantified using the 3,3-,5,5-tetramethylbenzidine (TMB) assay. Briefly, 400 µL of reaction solution was mixed with 100 µL of 2 mM TMB, 100 µM NaI containing 10% dimethylformamide (DMF) in 400 mM acetate buffer (pH 5.4). After 5 min, absorbance (650 nm) was recorded on a UV/Vis spectrophotometer (Agilent Model 8453).
MPO-catalyzed HOCl Production: MPO (20 nM) was incubated with H2O2 (50 µM), NaCl (150 mM), taurine (5 mM) and increasing concentrations of KYC in a phosphate buffer (100 mM, pH 7.4) containing diethylene triamine pentaacetic acid (DTPA, 100 µM) to prevent non-specific, divalent metal cation oxidation for 30 min. Reactions were halted by addition of catalase (2,000 units/mL). Chlorotaurine was quantified using the TMB assay (66). Briefly, 400 µL of reaction solution was mixed with 100 µL of 2 mM TMB, 100 µM NaI containing 10% dimethylformamide (DMF) in 400 mM acetate buffer (pH 5.4). After 5 min, absorbance (650 nm) was recorded on a UV/Vis spectrophotometer (Agilent Model 8453).

MPO [2] = test: MPO-mediated nitration of LDL (dot blot); assay type: biochemical; settings: MPO/H2O2/NaNO2, 37 °C, 4 h
Procedure: MPO-mediated Nitration of LDL: LDL (0.5 mg/mL) was incubated with MPO (50 nM), H2O2 (50 µM), NaNO2 (50 µM) and increasing concentrations of KYC in phosphate buffer (100 mM, pH 7.4) containing DTPA (100 µM) at 37 °C for 4 h. Reactions were stopped by addition of catalase (2,000 units/mL). Formation of NO2Tyr was assessed by dot blot analysis. Briefly, LDL solutions were mixed with 1% SDS and centrifuged (12000 g, 15 min). Aliquots of supernatants were applied to a nitrocellulose membrane with a dot blot apparatus (Biorad model: Bio-Dot). The levels of NO2Tyr were visualized using a rabbit polyclonal anti-NO2Tyr antibody (EMD, Gibbstown, NJ) and the ECL plus kit from Thermo-Peirce (Rockford, IL).

BAEC = test: MPO-mediated BAEC injury (cell morphology); assay type: cell-based, Bovine; settings: 20 min
SCD mice = test: Vessel wall thickness of facialis arteries from SCD mice; assay type: in vivo; settings: 0.3 mg/kg/d, 3 weeks; after papaverine; P=0.10
Procedure: Vessel Wall Thickness. After completing the vasodilatation studies, the pressurized vessels were maximally dilated by addition of papaverine (10^-4 mol/L, 4 min), and outside and inside diameters recorded. An index of wall thickness was calculated using the following formula; ([outside diameter/inside diameter]/2)/outside diameter, as previously described.

[3] = system: OVA-sensitized C57BL/6J mice; test: OVA murine model of experimentally-induced asthma (lung histology); assay type: in vivo; settings: 0.3 mg/kg every other day for 10 days
From the text: Murine Model of Experimentally-Induced Asthma. C57BL/6J mice (12-14 wk old) from Jackson Laboratory (Bar Harbor, ME) were housed in sterile autoclavable microisolation cages and fed standard laboratory mouse chow and water ad libitum. All protocols were approved by the Institutional Animal Care and Use Committee (IACUC) of the Medical College of Wisconsin.
C57BL/6J mice were divided into three groups; a control group (Control), an ovalbumin (OVA)-sensitized group and an OVA-sensitized group treated with KYC. OVA sensitization was achieved using a modification of a protocol previously described by de Siqueira et al^15 (Fig. 1). […] When mice inhale aerosolized OVA, robust allergic responses are routinely observed.
Briefly, on day one, mice were anesthetized (halothane; Halocarbon Laboratories, River Edge, NJ) and a heat-denatured OVA fragment (∼80 mg, 5 × 2 × 2 mm) was implanted subcutaneously in the dorsal aspect of the neck. The incision was closed with stainless steel clips and the mouse was allowed to recover. Implantation of the heat-denatured OVA fragment initiates sensitization. On day fifteen, the implanted mice were exposed to aerosolized OVA (6% in PBS) for 30 minutes every other day for ten days. Twenty-four hours after the last OVA challenge, the mice were deeply anesthetized (halothane), sacrificed by exsanguination and the lungs removed for analysis. […]

lung cancer mice = test: BHT-treated lung cancer mice (BALF activities, tumor number); assay type: in vivo; settings: BHT 300 mg/kg single dose; 0.3 mg/kg/d; after 3 days
Procedure: Inhibiting MPO decreases PMN degranulation in lung cancer mice. PMNs are considered to play a causal role in initiating tumor formation. Effects of KYC on PMN recruitment and tumor formation in lung cancer mice were determined. Briefly, mice were treated with BHT (single dose: 300 mg/kg) and KYC (0.3 mg/kg/d).

Q: How did the “MPO-catalyzed HOCl production, comparison at equimolar concentration” value (MPO [1]; 12.5 µM) turn out when `CC(=O)N[C@@H](CCCCN)C(=O)N[C@@H](Cc1ccc(O)cc1)C(=O)N[C@@H](CS)C(N)=O` [KYC, N-acetyl Lysyltyrosylcysteine amide] (Ac-Lys-Tyr-Cys-NH2) was run?
A: comparable to that of tryptophan; also recorded: significantly more effective at inhibiting MPO-dependent HOCl production than GSH

Q: And the “inhibition of HOCl production” value (MPO [1]; 12.5 µM)?
A: ~75%

Q: And the “MPO-dependent HOCl production” value (MPO [1]; 25 µM)?
A: completely inhibits; also recorded: completely ablated

Q: What about the IC50 (MPO [1]; MPO 20 nM, H2O2 50 µM, NaCl 150 mM, 30 min) of the same compound?
A: ~7 µM

Q: And the “NO2Tyr in LDL” value (MPO [2])?
A: markedly reduces

Q: What about the “protection of BAEC from MPO-induced injury (morphology)” value (BAEC; 25 µM, higher MPO (5 µg/ml) or H2O2 (100 µM), data not shown) of the same compound?
A: protected BAEC from even higher concentrations of MPO

Q: And the “protection of BAEC from MPO-induced injury (morphology)” value (BAEC; 50 µM, MPO 2.5 µg/ml, H2O2 50 µM)?
A: almost the same morphology as cultures that were not exposed to MPO

Q: And the vessel wall thickness (SCD mice)?
A: reduces vessel wall thickness

Q: And the “eosinophil infiltration in the lungs” value ([3]; H&E)?
A: markedly reduce eosinophil infiltration to essentially control levels

Q: What about the “collagen deposition in the lungs” value ([3]; McLetchie trichrome) of the same compound?
A: markedly reduces collagen deposition to control levels

Q: And the “MPO activity in BALF” value (lung cancer mice)?
A: significantly decreased

Q: And the “PMN number in BALF” value (lung cancer mice)?
A: did not reduce

Q: And the “elastase activity in BALF” value (lung cancer mice)?
A: significantly decreased
